Data reported in patent publication US20070202062A1, “Natural deodorant compositions comprising renewably-based, biodegradable 1,3-propanediol” (priority 2006, published 2007).

Tests used:
[1] = Glycerine vs Bio-PDO - Stability (Efficacy/shelf-life); settings: active in GLYCERINE; in vivo (human)
[2] = Glycerine vs Bio-PDO - Irritation (in vivo human)
[3] = Glycerine vs Bio-PDO - Stability (Shrinkage - 3 months); type: physicochemical
[4] = Glycerine vs Bio-PDO - Efficacy (deodorant actives, in vivo human)

CCCCCCCCCCCC(=O)OCC(O)CO (stereo not drawn) [GML, Glyceryl monolaurate]
Stability (Efficacy/shelf-life), # months [1]: 6 months | Irritation, Ranking 1-10 ([2]; active in Bio-PDO): 0 | Irritation, Ranking 1-10 ([2]; active in GLYCERINE): 0 | Stability (Shrinkage - 3 months), % in product ([3]; active in Bio-PDO): 3% | Stability (Shrinkage - 3 months), % in product ([3]; active in GLYCERINE): 0% | Efficacy, # hours ([4]; active in Bio-PDO): 12 h | Efficacy, # hours ([4]; active in GLYCERINE): 4 h

polyglyceryl-3 caprylate [polyglycerol 3 caprylate]
Efficacy, # hours ([4]; active in Bio-PDO): 12 h | Efficacy, # hours ([4]; active in GLYCERINE): 0 h
